Tested on: neuroblastoma (Neuro-2a) tumor
Test: In vivo MRI test of fibrin imaging in neuroblastoma tumor mouse model
Conditions: mice with neuroblastoma tumor; 25 μmol/kg iv.; T1 weighted MRI at 2T, 4 h post injection
Source text: Three groups of 5 mice each, inoculated with 2·10^6 neuroblastoma cells with PBS, were formed and tested as follows: • Group a: Reference compound 2, • Group b: Chelate Complex 1 • Group c: ProHance® (see Protocol)
At day-10 post tumor cells inoculation, at least 4 mice per group with similar tumor size (5-10 mm in diameter) were selected for the in vivo MRI tests. After pre-contrast MRI acquisition (T1 and T2 high resolution 2D spin-echo and 3D gradient echo images), the test compounds were administered (25 μmol/kg iv.) and MRI was performed at 4 h and 24 h post injection. Maximum signal intensity was measured in the entire tumor area and in each post contrast image covering the whole tumor and the signal was compared to the pre-contrast images. At the end of MRI exams, all animals were sacrificed and the tumor, blood, liver, kidneys and femoral bone were removed and prepared for Gd assay by ICP-AES. […]
The mean signal intensity was measured within a region of interest (ROI) including the entire tumor, drawn by an operator on each MR image using dedicated software (MR Research Systems Ltd, Surrey UK). Signal intensity enhancement (Enh %) was determined as: Enh%=100*(SIx(t)−SI0)/SI0 […]

## CC(O)CN1CCN(CC(=O)[O-])CCN(CC(=O)[O-])CCN(CC(=O)[O-])CC1.[Gd+3] (stereo not shown) [ProHance®, reference compound]
  tumor signal enhancement: no signal enhancement was observed inside the tumors

Source: patent US8466107B2, “Fibrin-binding peptides and conjugates thereof” (Bracco Imaging SpA, priority 2006, dated 2013)
